Consider six molecules from patent US12226449B2, “Materials and methods for the prevention of rheumatoid arthritis” (The University of Toledo, priority 2018, dated 2025).

“Also recorded” adds a separate entry of the source.

What all share (assay type): cell-based
For assay [1], the system named is human PBMCs. Description: ELISA of secreted (accumulated) cytokines of PBMCs. The conditions noted are these: drug present during 14-3-3ζ incubation.
Assay [2] deals with human PBMCs. Description: ELISPOT assay of IFN-γ and IL-17 secreting cells. The following applies: for effect on 14-3-3ζ-induced IFN-γ secreting cells / effect on 14-3-3ζ-induced IL-17 secreting cells: drug present during 14-3-3ζ incubation. As for the experimental part:
Cells were plated with 14-3-3ζ protein in a 96-well plate for 14 days at 37° C. in complete RPMI culture medium. Phytohemagglutinin (PHA) was used as a positive control. 10 μl MTT was added at a concentration of 5 mg/mL, and the plate was further incubated at 37° C. in the dark for 3 hours. Supernatant was then removed, and 100 μL DMSO was added for another hour before reading the absorbance at 570 nm using FLUOstar Omega microplate reader (BMG Labtech). For T cell differentiation, PBMCs were incubated with 1 μg/ml of 14-3-3ζ for 7 days followed by either the cellular staining for FACS analysis or ELISPOT as per manufacture's protocol. For testing the effect of drugs, prednisolone, prednisone, as well as TJU103, were used at 1 μg/ml concentration and cyclophosphamide was used at 0.1 μg/ml concentration.
The protocol was adopted from Immunospot kit from Cellular Technology Limited. In short, PBMCs incubated with 14-3-3ζ for 7 days were plated on the antibody coated ELISPOT plates. About 100,000 cells/well were added and incubated for 2 days at 37° C. followed by the developing protocol. Plates were read with a Quantihub ELISPOT plate reader and manually counted.

The test system of assay [3] is human PBMCs. Description: T cell polarization of PBMCs by flow cytometry (CD4, CD366, IL-17, CD8, CD69). The following applies: drug present during 14-3-3ζ incubation, prednisolone, prednisone, TJU103 1 μg/ml, cyclophosphamide 0.1 μg/ml, BV02 5 nM. As for the experimental part: Cells were plated with 14-3-3ζ protein in a 96-well plate for 14 days at 37° C. in complete RPMI culture medium. Phytohemagglutinin (PHA) was used as a positive control. 10 μl MTT was added at a concentration of 5 mg/mL, and the plate was further incubated at 37° C. in the dark for 3 hours. Supernatant was then removed, and 100 μL DMSO was added for another hour before reading the absorbance at 570 nm using FLUOstar Omega microplate reader (BMG Labtech). For T cell differentiation, PBMCs were incubated with 1 μg/ml of 14-3-3ζ for 7 days followed by either the cellular staining for FACS analysis or ELISPOT as per manufacture's protocol. […] PBMCs incubated with 14-3-3ζ for 7 days at 37° C. were fixed in 2% paraformaldehyde for an hour, and washed with PBS. […] For surface staining, cells were stained in 50 μL PBS with 5 μl per million cells antibody for 30 minutes in the dark on ice. For intracellular staining, cells were permeabilized with Triton for 10-15 min. After staining, cells were washed with PBS and resuspended in 1 mL PBS for analysis. The following antibodies from Biolegend Inc. were used: […] Cells were sorted at FACSCanto II system (BD Biosciences) and analyzed using FlowJo software (version 10). A gate was created around an initial population of cells in the FSC-SSC plot, and this population of cells was further analyzed for CD4, CD366, and IL-17 expression. Unstained and isotype labelled cells were used as a control for setting the gates.
(In general: A flow cytometer gives signals particle by particle.)

Assay [4] has as its system human PBMCs. The assay can be described thus: PBMC proliferation, MTT assay. The following applies: for effect on 14-3-3ζ-induced PBMC proliferation: inhibitor present during 14-3-3ζ incubation, BV02 5 nM, TJU103 1 μg/ml. Here is the method:
Blood from healthy donors was collected as per the approved IRB protocol. The protocol for isolation of PBMCs was previously reported. In short, whole blood was diluted with an equal volume of RPMI before layering on Ficoll-Paque PLUS in a 15 mL tube. Tubes were then centrifuged for 25 minutes with the brakes off at 950 g. PBMCs were collected from the layer between the plasma and Ficoll liquid. PBMCs were then washed twice with RPMI, with 7 min spins at 350×g to pellet the cells. Finally, cells were resuspended in complete RPMI before counting and plating. […] Phytohemagglutinin (PHA) was used as a positive control. 10 μl MTT was added at a concentration of 5 mg/mL, and the plate was further incubated at 37° C. in the dark for 3 hours. Supernatant was then removed, and 100 μL DMSO was added for another hour before reading the absorbance at 570 nm using FLUOstar Omega microplate reader (BMG Labtech). For T cell differentiation, PBMCs were incubated with 1 μg/ml of 14-3-3ζ for 7 days followed by either the cellular staining for FACS analysis or ELISPOT as per manufacture's protocol.
For orientation: Tetrazolium assays rely on reduction of a dye to a coloured formazan, in cell work by metabolically active cells.

Assay [5] relates to human PBMCs. Description: ELISPOT assay of IFN-γ and IL-17 secreting cells. The conditions noted are these: PBMC treated with protein for 7 d.

As for `C[C@]12C=CC(=O)C=C1CC[C@@H]1[C@@H]2[C@@H](O)C[C@@]2(C)[C@H]1CC[C@]2(O)C(=O)CO` [prednisolone], in assay [1], the “effect on 14-3-3ζ-induced accumulated IL-17 level” value was “Significant suppression; also recorded: reproduced effect on accumulated IL-17” and the “effect on IL-6 level” value is given as “bare minimum effect”. For the same molecule, in assay [2], the “effect on 14-3-3ζ-induced IFN-γ secreting cells” value is “Significant suppression; also recorded: strong inhibition” and the “effect on 14-3-3ζ-induced IL-17 secreting cells” value is “significant suppression; also recorded: strong inhibition”. Also, in assay [3], the “effect on 14-3-3ζ-induced CD366 positive CD4 cells (Th1)” value (“effect … (Th1)” below) is recorded as “mild effect” and the “effect on 14-3-3ζ-induced IL-17 positive CD4 cells (Th17)” value (“effect … (Th17)” below) was “significant suppression; also recorded: strongly inhibited”. Also, in assay [3] (listed as Prednisolone), the “effect … (Th1)” value is given as “suppressed” and the “effect … (Th17)” value is “suppressed”.
With `C[C@]12C=CC(=O)C=C1CC[C@@H]1[C@@H]2C(=O)C[C@@]2(C)[C@H]1CC[C@]2(O)C(=O)CO` [prednisone], in assay [2], the “effect on 14-3-3ζ-induced IFN-γ secreting cells” value was “no effect” and the “effect on 14-3-3ζ-induced IL-17 secreting cells” value was “no effect”.
Take `O=P1(N(CCCl)CCCl)NCCCO1` (stereo not drawn) [cyclophosphamide]: the “effect on 14-3-3ζ-induced IFN-γ secreting cells” value in assay [2] is recorded as “mild inhibition; also recorded: impacted only IFN-γ producing cells”. Also, in assay [3], the “effect … (Th1)” value is on record as “significant suppression; also recorded: mild inhibition” and the “effect … (Th17)” value is listed as “only milder inhibition; also recorded: no sufficient inhibition; also recorded: no effect”.
Turning to `Cc1c(N2C(=O)c3ccc(C(=O)O)cc3C2=O)c(=O)n(-c2ccccc2)n1C` [BV02], the “effect on PHA induced PBMC proliferation” value in assay [4] (BV02 present) is reported as “no suppression; also recorded: did not affect”. Besides, in assay [4], the “effect on 14-3-3ζ-induced PBMC proliferation” value is “no effect; also recorded: did not show any difference”. In assay [2] (BV02 present), the “effect on PHA induced IFN-γ secreting cells” value is “did not affect” and the “effect on PHA induced IL-17 secretion” value was “partial inhibition”. In assay [2], the “effect on 14-3-3ζ-induced IFN-γ secreting cells” value is listed as “did not show an increase; also recorded: significant inhibition” and the “effect on 14-3-3ζ-induced IL-17 secreting cells” value was “did not show an increase; also recorded: significant inhibition”. In assay [3], the “effect … (Th1)” value is recorded as “no effect; also recorded: did not affect” and the “effect … (Th17)” value was “no effect; also recorded: did not affect”.
On to `O=C(NN=Cc1c[nH]c2ccccc12)c1ccncc1` [TJU103], for which, in assay [4], the “effect on 14-3-3ζ-induced PBMC proliferation” value is listed as “did not inhibit”. Moreover, in assay [1], the “effect on 14-3-3ζ-induced accumulated IL-17 level” value was “no difference” and the “effect on IL-6 level” value was “no difference”. In addition, in assay [1] (listed as TJU131), the “effect on 14-3-3ζ-induced accumulated IL-17 level” value is recorded as “no significant difference”. For the same molecule, in assay [2], the “effect on 14-3-3ζ-induced IFN-γ secreting cells” value is on record as “stronger decrease; also recorded: suppressed; also recorded: Inhibition” and the “effect on 14-3-3ζ-induced IL-17 secreting cells” value is on record as “less sensitive to inhibition”. Also, in assay [2] (listed as TJU131), the “effect on 14-3-3ζ-induced IFN-γ secreting cells” value is listed as “mild suppression” and the “effect on 14-3-3ζ-induced IL-17 secreting cells” value is “mild suppression”. Moreover, in assay [3], the “effect … (Th1)” value is on record as “suppressed” and the “effect … (Th17)” value is given as “suppressed”.

B1: 14-3-3ε: another 14-3-3 isoform, used for specificity and comparison (protein, UniProt P62258 1-255, looked up)
14-3-3 protein epsilon: MDDREDLVYQAKLAEQAERYDEMVESMKKVAGMDVELTVEERNLLSVAYKNVIGARRASWRIISSIEQKEENKGGEDKLKMIREYRQMVETELKLICCDILDVLDKHLIPAANTGESKVFYYKMKGDYHRYLAEFATGNDRKEAAENSLVAYKAASDIAMTELPPTHPIRLGLALNFSVFYYEILNSPDRACRLAKAAFDDAIAELDTLSEESYKDSTLIMQLLRDNLTLWTSDMQGDGEEQNKEALQDVEDENQ
Take B1: the entries for the “number of IFN-γ and IL-17 secreting cells” value in assay [5] (listed as 14-3-3e) and in assay [5] (listed as 14-3-3 epsilon) were “not replaced” and “no significant effect”, respectively.
